In US12558326B2, “Method for treating epilepsy” (Xenon Pharmaceuticals Inc., priority 2018, dated 2026):
“And” between values parts separate entries of the source, which are not always exact repeats. Identical values can stand only once.

What was measured:
6 Hz model = details: 30 min after i.p. injection; cited from earlier work
MES test = details: in vivo; cited from earlier work
DBA/2 mice = test: Audiogenic seizure test in DBA/2 mice; type: in vivo, mouse; details: 180 mg/kg IP, 30 min prior
Procedure: DBA/2 is a widely used inbred strain of mouse susceptible to audiogenic seizures due to the asp2 mutation. […] The objective of this study was to evaluate the anticonvulsant activity of (R/S)-fenfluramine and to compare it to (R)-fenfluramine in the DBA/2 mouse.
The method follows that described by Dilrmuiller et al., Neuroreport 4(6):683-686. Mice (DBA/2, 3-4 weeks old) were individually transferred (at 3-5 minute intervals) from the preparation room into an adjacent experimental room and placed in a Plexiglas™ jar (Diameter=40 cm; Height=35 cm) mounted with an electric bell (110-120 dB). Upon activating the bell, the occurrences and latencies to wild running fits, clonic and tonic seizures were measured. The number of deaths was also recorded. An audiogenic response score was assigned to each mouse as 0 (no seizure), 1 (wild running), 2 (clonic convulsion), 3 (tonic extension), or 4 (death). The bell was activated until a tonic seizure occurred or for a maximum of 60 seconds. Ten (10) mice were studied per group. The test was performed blind. All test compounds were dissolved in 0.9% saline (vehicle) and were administered by intraperitoneal (IP) injection at a dose volume of 10 mL/kg. Vehicle alone, (R/S)-fenfluramine (15 or 30 mg/kg) or (R)-fenfluramine (30 mg/kg) were administered 60 minutes prior to seizure induction. The positive reference compound (valproate; 180 mg/kg) was administered 30 minutes prior to seizure induction.

5-HT2A receptor = 5-HT2A receptor (Homo sapiens, UniProt P28223); details: Rothman et al. 2002, 2003; cited from earlier work
5-HT2C receptor = target: T1, 5-HT2C receptor (Homo sapiens, UniProt P28335); details: Rothman et al. 2002, 2003; cited from earlier work
T1 sequence (P28335 33-458): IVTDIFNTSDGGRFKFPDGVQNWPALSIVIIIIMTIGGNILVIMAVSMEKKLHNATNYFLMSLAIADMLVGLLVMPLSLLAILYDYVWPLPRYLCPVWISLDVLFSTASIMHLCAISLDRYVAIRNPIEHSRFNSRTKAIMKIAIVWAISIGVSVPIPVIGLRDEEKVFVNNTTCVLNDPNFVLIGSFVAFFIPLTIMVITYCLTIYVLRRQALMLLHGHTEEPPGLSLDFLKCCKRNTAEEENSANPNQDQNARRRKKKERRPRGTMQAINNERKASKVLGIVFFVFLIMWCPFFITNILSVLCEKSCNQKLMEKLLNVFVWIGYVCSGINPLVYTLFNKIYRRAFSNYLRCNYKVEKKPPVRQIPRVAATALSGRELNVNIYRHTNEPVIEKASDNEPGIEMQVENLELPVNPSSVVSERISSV

5-HT2B receptor = 5-HT2B receptor (Homo sapiens, UniProt P41595); details: Rothman et al. 2002, 2003; cited from earlier work
[1] = tested on: norepinephrine (NE) release; details: Rothman et al. 2002, 2003; cited from earlier work
CF-1 mice = test: 6 Hz seizure test (44 mA, 3 sec, corneal electrodes) in vivo; set-up: species or system mouse; details: 20 mg/kg IP; for percentage of animals protected against psychomotor seizures: one hour before assay, 6 Hz 44 mA, n=16 per group
Description: This assay tests the ability of a test compound to block a psychomotor seizure induced by long-duration, low frequency (6 Hz) stimulation, and provides an art-accepted model of therapy-resistant partial seizure (Brown et al., 1953 J. Pharmacol. Exp. Therapeut. 107(3):273-283; White H S, Woodhead J H, Wilcox K S, General principles: discovery and preclinical development of antiepileptic drugs, In: Levy R H, Mattson R H, Meldrum B S, Perucca E, editors. Antiepileptic drugs 5th ed Philadelphia: Lippincott Williams & Wilkins; 2002. pp. 36-48; Hartman et al., 2008 Epilepsia 49(2):334-339).
Methods. Adult male CF1 mice (18-25 g) are pretreated intraperitoneally (i.p.) with the test compound at a dose of 20-100 mg/kg. If toxicity is noted in a pre-test screen for toxic effects when the test compound is administered i.p. at varying dosages, the dose is modified to avoid overt toxic effects. Each treatment group (n=4-16 mice/group) is examined for anticonvulsive effects at one or more of five time points (¼, ½, 1, 2, and 4 hr) after treatment with the test compound. Following pretreatment, each mouse receives a drop of 0.5% tetracaine hydrochloride applied to each eye. The mouse is then challenged with low-frequency (6 Hz) stimulation for 3 sec delivered through corneal electrodes. The low-frequency, long-duration stimuli are initially delivered at 32 mA intensity. Animals are manually restrained and released immediately following the stimulation and observed for the presence or absence of seizure activity. If the test compound is effective in the 32 mA screen, an additional assay is performed in which the stimulation current is increased to 44 mA but otherwise using the same protocol as described above. For dose-response studies, an n of 8 mice is used per dose and a dose-response curve is generated at the time of peak effect (TPE) at the specific stimulation intensity.
Typically, the 6 Hz stimulation results in a seizure characterized by a minimal clonic phase that is followed by stereotyped, automatistic behaviors, including jaw clonus, forelimb clonus, twitching of the vibrissae, and/or Straub-tail. Animals not displaying such behaviors are considered protected. Seizure score can be used as an additional measure of the efficacy of the investigational compound (Racine, R. J. 1972 Electroencephalogr. Clin. Neurophysiol. 32(3):281-294). Data are analyzed by Mann-Whitney U test, with p<0.05 determined to be statistically significant. For data obtained at each time point, results are expressed as the total number of animals protected out of the number of animals tested over time (e.g., 2/4 represents 2 out of 4 mice tested are protected).
In this Example, the in vivo anticonvulsant effects of candidate AEDs were tested in mice using the 6 Hz seizure test. The 6 Hz seizure test was performed essentially as described above in Biological Example 2, with minor modifications as presented here, including data collection at a time point that was one hour after administration of the candidate AEDs.
Compounds: Candidate AED compounds were prepared as described above unless otherwise noted, and were as follows: • Racemic fenfluramine ([rac]-fenfluramine hydrochloride); • (R)-fenfluramine ([R]-(−)-fenfluramine hydrochloride); • Racemic norfenfluramine ([rac]-norfenfluramine) was purchased from Toronto Research Chemicals, North York, Ontario, Canada; • (R)-norfenfluramine ([R]-(−)-norfenfluramine.
Animals: Adult male CF-1 albino mice (25-35 g) purchased from Harlan-Envigo (East Millstone, NJ). The mice were housed four per cage and had access to filtered water and chow ad libitum, throughout the experiment.
Compound Preparation and Administration: All four compounds were solubilized in sterile aqueous saline solution (0.9% NaCl). Compounds were administered to animals (16 mice in each treatment group) via intraperitoneal (IP) injection at 10 ml/kg volume, one hour prior to the assay. Control animals received vehicle (saline) only. […]

[2] = Brain and plasma distribution after the 6 Hz assay (UHPLC-ESI-MS/MS); type: in vivo, mouse; details: 20 mg/kg IP, total concentration, sampled immediately after 6 Hz assay (one hour post dose)
Procedure: Pharmacological distribution and bioanalysis. Immediately following characterization of seizure behaviors in the 6 Hz assay, animals were humanely sacrificed and brain and plasma samples were collected for analysis of the distribution of the administered compounds to these tissue compartments.
Brain sample homogenization. Pre-weighed whole mouse brains were thawed and 1 mL of deionized water and 1 mL of acetonitrile were added to each sample vial containing brain tissue. The samples were homogenized using a hand-held Omni™ TH homogenizer (Omni International, Kennesaw, GA, USA) until a uniform slurry was obtained. 1 mL aliquots of the slurry were transferred to clean 1.5 mL plastic Eppendorf tubes and the tubes were centrifuged at 13,000 rpm (15,871×g) for 20 minutes. The supernatant was collected and stored in clean labelled plastic Eppendorf vials at −80° C.
Mouse plasma and brain homogenate sample preparation. Mouse brain homogenates and mouse plasma samples, as well as calibration standards and QC samples prepared from control (“blank”) untreated mouse plasma, were extracted by protein precipitation. Briefly, 50 μL of each brain homogenate and mouse plasma sample (as well as each calibration standard, QC sample and blank mouse plasma sample) was mixed with 50 μL of internal standard solution [a 2,500 ng/mL solution of (S)-5-((1-benzylpyrrolidin-3-yl)(methyl)amino)-6-methyl-N-(thiazol-4-yl)pyridine-2-sulfonamide in deionized water/acetonitrile (1:1 v/v)], followed by addition of 50 μL of 6% (v/v) phosphoric acid in water. This was followed by the addition of 200 μL of acetonitrile. The samples were vortexed for 30 seconds and then centrifuged for 20 min at 13,000 rpm (15,871×g). The supernatants were further diluted four-fold with acetonitrile:water (1:1 v/v) and transferred to a 96-well plate prior to analysis. Calibration and QC samples were prepared in blank K2EDTA mouse plasma in the concentration range from 2.3 ng/mL to 4800 ng/mL with QC samples, including low QC (14 ng/mL), mid QC (225 ng/mL), and high QC (3600 ng/mL).
UHPLC-ESI-MS/MS analysis. Samples were then analyzed by ultra-high pressure liquid chromatography/electrospray ionization tandem mass spectroscopy (UHPLC-ESI MS/MS) using a Sciex™ TQ-5500 (AB Sciex™ LP, Concord, ON, Canada) mass spectrometer equipped with a Shimadzu Nexera™ UHPLC pump, column compartment and auto-sampler (Shimadzu Scientific Instruments, Inc., Columbia, MD, USA), using a binary gradient elution starting with 80% water (A)/20% acetonitrile (B), both solvents containing 0.1% formic acid. After 0.6 minutes, mobile phase B was increased linearly to 100% to 1 minute and elution was maintained at 100% mobile phase B until 1.5 minutes, and then allowed to re-equilibrate at the initial ration of 80% mobile phase A and 20% mobile phase B for a total run time of 2.5 minutes at a flow rate of 0.4 mL/min. The column used was ACE Excel™ 2 C18-PFP (2.1 mm i.d.×[…], 2 μm particle size)(Advanced Chromatography Technologies Ltd, Aberdeen, Scotland). The analytes and the internal standard were ionized by electrospray in the positive ion mode and detected by multiple reaction monitoring (MRM) using the transitions listed in Table 1.

Chain of 5-HT2A receptor (P28223 whole entry): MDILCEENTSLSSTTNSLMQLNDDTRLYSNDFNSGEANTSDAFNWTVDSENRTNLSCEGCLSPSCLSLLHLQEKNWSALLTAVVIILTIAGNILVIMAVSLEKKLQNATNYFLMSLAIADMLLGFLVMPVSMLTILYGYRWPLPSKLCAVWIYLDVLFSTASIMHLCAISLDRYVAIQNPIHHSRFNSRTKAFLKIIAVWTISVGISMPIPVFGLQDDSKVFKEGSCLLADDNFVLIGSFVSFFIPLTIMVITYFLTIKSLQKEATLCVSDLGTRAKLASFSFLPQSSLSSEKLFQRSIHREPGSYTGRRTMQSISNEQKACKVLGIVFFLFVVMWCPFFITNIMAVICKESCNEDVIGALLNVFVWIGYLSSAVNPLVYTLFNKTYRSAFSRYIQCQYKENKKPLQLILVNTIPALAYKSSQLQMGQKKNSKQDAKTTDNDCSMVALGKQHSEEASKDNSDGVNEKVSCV
Chain of 5-HT2B receptor (P41595 whole entry): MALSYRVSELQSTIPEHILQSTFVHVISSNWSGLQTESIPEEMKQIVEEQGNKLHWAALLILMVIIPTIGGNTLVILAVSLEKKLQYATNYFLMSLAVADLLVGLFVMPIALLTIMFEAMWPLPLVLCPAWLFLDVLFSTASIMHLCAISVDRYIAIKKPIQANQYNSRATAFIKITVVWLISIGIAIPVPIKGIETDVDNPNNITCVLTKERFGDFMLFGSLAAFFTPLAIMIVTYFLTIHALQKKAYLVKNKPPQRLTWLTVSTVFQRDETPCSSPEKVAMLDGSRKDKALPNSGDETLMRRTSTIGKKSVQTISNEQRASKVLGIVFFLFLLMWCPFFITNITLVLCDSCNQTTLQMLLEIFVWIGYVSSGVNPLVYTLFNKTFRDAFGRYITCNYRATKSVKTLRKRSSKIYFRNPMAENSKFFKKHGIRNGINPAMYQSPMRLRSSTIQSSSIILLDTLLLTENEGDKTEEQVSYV

CC[C@@H](C(N)=O)N1CCCC1=O [levetiracetam]
ED50 (6 Hz model): 19 mg/kg
efficacy in the MES test (MES test): ineffective

CCCC(CCC)C(=O)O [Valproate]
Clonic Convulsion Incidence (DBA/2 mice; n=10): 0%
Tonic Extension Incidence (DBA/2 mice; n=10): 0%
Wild Running Incidence (DBA/2 mice; n=10): 40%
Clonic Convulsion Latency (DBA/2 mice; mean ± SEM, maximum 60 s): 60.0 ± 0.0 s
Tonic Extension Latency (DBA/2 mice; mean ± SEM, maximum 60 s): 60.0 ± 0.0 s
Wild Running Latency (DBA/2 mice; mean ± SEM, maximum 60 s): 38.1 ± 9.0 s
Audiogenic Response Score (DBA/2 mice; score 0-4, mean ± SEM, n=10): 0.4 ± 0.16

C[C@H](N)Cc1cccc(C(F)(F)F)c1 [(S)-norfenfluramine, (S)-1-((3-trifluoromethyl)phenyl)propan-2-amine]
5-HT2A agonist activity (5-HT2A receptor): potent
5-HT2C agonist activity (5-HT2C receptor): potent
5-HT2B agonist activity (5-HT2B receptor): potent
NE release-promoting activity [1]: potent

CC(N)Cc1cccc(C(F)(F)F)c1 (racemic) [(rac)-norfenfluramine, (R/S)-1-(3-(trifluoromethyl)phenyl)propan-2-amine]
percentage of animals protected against psychomotor seizures (CF-1 mice): 50%
protective activity against seizures in the 6 Hz psychomotor seizure assay (CF-1 mice; summary statement): exhibited protective activity against seizures
Brain concentration [2]: 151.2 μM and 30718 ng/g
Plasma concentration [2]: 12.97 μM and 2636 ng/g

C[C@@H](N)Cc1cccc(C(F)(F)F)c1 [(R)-norfenfluramine, (R)-1-(3-(trifluoromethyl)phenyl)propan-2-amine]
percentage of animals protected against psychomotor seizures (CF-1 mice): 50%
Brain concentration [2]: 179.6 μM and 36501 ng/g
Plasma concentration [2]: 17.73 μM and 3604 ng/g
